What was measured:
[1] = molecular target: T1, hTHEM4 (Homo sapiens, UniProt Q5T1C6); test: product inhibition of thioesterase activity; format: biochemical
[2] = molecular target: T1, hTHEM4; test: substrate hydrolysed in the competitive inhibition assay; format: biochemical

T1 sequence (Q5T1C6 37-240): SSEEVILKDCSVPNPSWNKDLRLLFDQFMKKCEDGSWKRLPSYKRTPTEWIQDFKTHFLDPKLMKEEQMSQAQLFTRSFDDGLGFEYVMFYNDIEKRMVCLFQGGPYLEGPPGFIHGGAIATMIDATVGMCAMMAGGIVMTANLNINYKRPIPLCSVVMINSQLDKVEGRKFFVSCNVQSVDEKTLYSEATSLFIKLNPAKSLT

Ki [1] [µM]	SMILES	substrate hydrolysed in the competitive inhibition assay [2]
81 ± 1	CC(C)(COP(=O)(O)OP(=O)(O)OC[C@H]1O[C@@H](n2cnc3c(N)ncnc32)[C@H](O)[C@@H]1OP(=O)(O)O)[C@@H](O)C(=O)NCCC(=O)NCCS [CoA]	–
–	CCCCCCCCCC(=O)SCCNC(=O)CCNC(=O)[C@H](O)C(C)(C)COP(=O)(O)OP(=O)(O)OC[C@H]1O[C@@H](n2cnc3c(N)ncnc32)[C@H](O)[C@@H]1OP(=O)(O)O [decanoyl-CoA]	competitive inhibitor of hTHEM4-catalyzed decanoyl-CoA hydrolysis
